Reference: US8431523B2, “Oligomeric biosurfactants in dermatocosmetic compositions” (priority 2006, dated 2013)
Non-standard residues stand in square brackets, D forms with d. Residues, ends and D or L forms follow the SMILES beside them. *: point of attachment. Palmitoyl = CCCCCCCCCCCCCCCC(=O)*; Myristoyl = CCCCCCCCCCCCCC(=O)*

Test system: fibroblast proliferation
Assay: Cyquant Cell Proliferation Assay
Assay type: cell-based
Method: For purposes of the present invention, proliferation is assessed using the Cyquant® Cell Proliferation Assay from Molecular Probes. This assay measures increased production of cellular nucleic acids that, in turn, results in increased binding of fluorescent dye.

Compound | increase fibroblast proliferation (qualitative) | increase fibroblast proliferation
CCCCCCCCCCCCCC(=O)N[C@@H](CCCCN)C(=O)N[C@H](C(=O)N[C@H](C(=O)N[C@@H](CCCCN)C(=O)N[C@@H](CO)C(N)=O)[C@@H](C)O)[C@@H](C)O [P190, Myr-KTTKS-amide] (Myristoyl-KTTKS-NH2) | increase fibroblast proliferation | –
CCCCCCCCCCCCCC(=O)N[C@H](C(=O)N[C@@H](CCCCN)C(=O)N[C@H](C(=O)N[C@H](C(=O)N[C@@H](CCCCN)C(N)=O)[C@@H](C)O)[C@@H](C)O)[C@@H](C)O [P228, Myr-TKTTK-amide] (Myristoyl-TKTTK-NH2) | increase fibroblast proliferation | –
CCCCCCCCCCCCCC(=O)N[C@@H](CCCCN)C(=O)N[C@@H](CC(C)C)C(=O)N[C@@H](C)C(=O)N[C@@H](CCCCN)C(=O)N[C@@H](CCCCN)C(=O)N[C@@H](C)C(=O)O [P252, Myr-KLAKKA-acid] (Myristoyl-KLAKKA-OH) | increase fibroblast proliferation | –
CCCCCCCCCCCCCC(=O)N[C@@H](C)C(=O)N[C@@H](CCCCN)C(=O)N[C@@H](CCCCN)C(=O)N[C@@H](CC(C)C)C(=O)N[C@@H](C)C(=O)N[C@@H](CCCCN)C(=O)O [P256, Myr-AKKLAK-acid] (Myristoyl-AKKLAK-OH) | increase fibroblast proliferation | –
CCCCCCCCCCCCCC(=O)NCC(=O)N[C@@H](C)C(=O)N[C@@H](CCCNC(=N)N)C(=O)O [P257, Myr-GAR-acid] (Myristoyl-Gly-Ala-Arg-OH) | increase fibroblast proliferation | –
CCCCCCCCCCCCCC(=O)NCC(=O)N[C@@H](CCCNC(=N)N)C(=O)N[C@@H](CCCCN)C(=O)NCC(=O)N[C@@H](CC(=O)O)C(=O)O [P266, Myr-GRKGD-acid] (Myristoyl-GRKGD-OH) | increase fibroblast proliferation | –
CCCCCCCCCCCCCC(=O)N[C@@H](CCCCN)C(=O)N[C@@H](CCCCN)C(=O)N[C@@H](C)C(=O)N[C@@H](CC(C)C)C(N)=O [P291, Myr-KKAL-amide] (Myristoyl-KKAL-NH2) | increase fibroblast proliferation | –
CCCCCCCCCCCCCC(=O)N[C@@H](CCCCN)C(=O)N[C@@H](CCCCN)C(=O)NCC(=O)N[C@@H](CCC(=O)O)C(=O)N[C@@H](CCSC)C(=O)O [P293, Myr-KKGEM-acid] (Myristoyl-KKGEM-OH) | increase fibroblast proliferation | –
CCCCCCCCCCCCCC(=O)N[C@@H](CC(C)C)C(=O)N[C@@H](CCCCN)C(=O)N[C@@H](CCCCN)C(=O)N[C@@H](C)C(=O)N[C@@H](CC(C)C)C(=O)N[C@@H](CCCCN)C(N)=O [P296, Myr-LKKALK-amide] (Myristoyl-LKKALK-NH2) | increase fibroblast proliferation | –
CCCCCCCCCCCCCC(=O)NCC(=O)N[C@@H](CCCNC(=N)N)C(=O)NCC(=O)N[C@@H](CC(=O)O)C(=O)N[C@@H](CO)C(N)=O [P382, Myr-GRGDS-amide] | increase fibroblast proliferation | –
CCCCCCCC(=O)NCC(=O)N[C@@H](CCCNC(=N)N)C(=O)NCC(=O)N[C@@H](CC(=O)O)C(=O)N[C@@H](CO)C(N)=O [P387, Oct-GRGDS-amide] | increase fibroblast proliferation | –
CCCCCCCCCCCCCC(=O)N[C@@H](CC(=O)O)C(=O)N[C@@H](C)C(=O)N[C@@H](CC(=O)O)C(=O)O [P388, Myr-DAD-acid] (Myristoyl-Asp-Ala-Asp-OH) | increase fibroblast proliferation | –
CCCCCCCCCCCCCC(=O)N[C@@H](CC(=O)O)C(=O)N[C@@H](CC(=O)O)C(=O)N[C@@H](C)C(=O)N[C@@H](CC(=O)O)C(=O)O [P389, Myr-DDAD-acid] (Myristoyl-DDAD-OH) | increase fibroblast proliferation | –
CCCCCCCCCCCCCC(=O)N[C@@H](CCCCN)C(=O)N[C@H](C(=O)N[C@@H](C)C(=O)N[C@@H](CCCCN)C(=O)N[C@H](CCCCN)C(N)=O)[C@@H](C)CC [P401, Myr-KIAK-[K]^D-amide] (Myristoyl-KIAK[dK]-NH2) | increase fibroblast proliferation | –
CCCCCCCCCCCCCC(=O)N[C@@H](CC(C)C)C(=O)N[C@@H](CCCCN)C(=O)N[C@@H](CCCCN)C(=O)N[C@@H](C)C(=O)N[C@@H](CC(C)C)C(=O)N[C@H](CCCCN)C(=O)O [P406, Myr-LKKAL-[K]^D-acid] (Myristoyl-LKKAL[dK]-OH) | increase fibroblast proliferation | –
CCCCCCCCCCCCCC(=O)N[C@@H](CC(=O)O)C(=O)N[C@@H](CC(=O)O)C(=O)N[C@@H](CO)C(=O)N[C@@H](CO)C(=O)N[C@@H](CCCCN)C(=O)N[C@@H](CCCCN)C(N)=O [P411, Myr-DDSSKK-amide] (Myristoyl-DDSSKK-NH2) | increase fibroblast proliferation | –
CCCCCCCCCCCCCC(=O)N[C@@H](CC(=O)O)C(=O)N[C@@H](CC(=O)O)C(=O)N[C@@H](CC(C)C)C(=O)N[C@@H](C)C(=O)N[C@@H](CCCCN)C(=O)N[C@@H](CCCCN)C(N)=O [P412, Myr-DDLAKK-amide] (Myristoyl-DDLAKK-NH2) | increase fibroblast proliferation | –
CCCCCCCCCCCCCC(=O)N[C@@H](CCCCN)C(=O)N[C@@H](CC(C)C)C(=O)N[C@@H](C)C(=O)N[C@@H](CCCCN)C(=O)N[C@H](CCCCN)C(N)=O [P414, Myr-KLAK-[K]^D-amide] (Myristoyl-KLAK[dK]-NH2) | increase fibroblast proliferation | –
CCCCCCCCCCCCCC(=O)N[C@H](C(=O)N[C@H](C(=O)N[C@H](C(=O)N[C@H](C(=O)N[C@H](C(=O)N[C@@H](CCCCN)C(N)=O)[C@@H](C)CC)[C@@H](C)CC)[C@@H](C)CC)[C@@H](C)CC)[C@@H](C)CC [P417, Myr-IIIIIK-amide] (Myristoyl-IIIIIK-NH2) | increase fibroblast proliferation | –
CCCCCCCCCCCCCC(=O)N[C@H](C(=O)N[C@H](C(=O)N[C@H](C(=O)N[C@@H](CCCCN)C(=O)N[C@@H](CCCCN)C(N)=O)[C@@H](C)CC)[C@@H](C)CC)[C@@H](C)CC [P418, Myr-IIIKK-amide] (Myristoyl-IIIKK-NH2) | increase fibroblast proliferation | –
Dod-KKALK-amide [P328] | increase fibroblast proliferation | –
Myr-K-[K]^D-A-[L]^D-amide [P361] | increase fibroblast proliferation | –
Myr-KGL-[K]^D-amide (Myristoyl-KGL[dK]-NH2; SMILES CCCCCCCCCCCCCC(=O)N[C@@H](CCCCN)C(=O)NCC(=O)N[C@@H](CC(C)C)C(=O)N[C@H](CCCCN)C(N)=O) [P405] | increase fibroblast proliferation | –
Myr-KKALKL-amide (Myristoyl-KKALKL-NH2; SMILES CCCCCCCCCCCCCC(=O)N[C@@H](CCCCN)C(=O)N[C@@H](CCCCN)C(=O)N[C@@H](C)C(=O)N[C@@H](CC(C)C)C(=O)N[C@@H](CCCCN)C(=O)N[C@@H](CC(C)C)C(N)=O) [P380] | increase fibroblast proliferation | –
Pal-AARK-amide (Palmitoyl-AARK-NH2; SMILES CCCCCCCCCCCCCCCC(=O)N[C@@H](C)C(=O)N[C@@H](C)C(=O)N[C@@H](CCCNC(=N)N)C(=O)N[C@@H](CCCCN)C(N)=O) [P397] | increase fibroblast proliferation | –
Pal-KKLAK-amide (Palmitoyl-KKLAK-NH2; SMILES CCCCCCCCCCCCCCCC(=O)N[C@@H](CCCCN)C(=O)N[C@@H](CCCCN)C(=O)N[C@@H](CC(C)C)C(=O)N[C@@H](C)C(=O)N[C@@H](CCCCN)C(N)=O) [P333] | increase fibroblast proliferation | –
Pal-VGVAPG-amide (Palmitoyl-VGVAPG-NH2; SMILES CCCCCCCCCCCCCCCC(=O)N[C@H](C(=O)NCC(=O)N[C@H](C(=O)N[C@@H](C)C(=O)N1CCC[C@H]1C(=O)NCC(N)=O)C(C)C)C(C)C) [P247] | – | at least 30%

Test system: P. cepacia
Assay: Minimum inhibitory concentration, P. cepacia
Assay type: cell-based, Pseudomonas cepacia
From the text: By “antimicrobial” activity is meant the ability to inhibit the growth of at least one microbial organism selected from the group consisting E. coli, P. aeruginosa, S. aureus and C. albicans, as confirmed by optical density measurement (“OD”). By “inhibition of growth” is meant reduction or absence of an increase greater than 5% in OD, a dimensionless measure of turbidity that is proportional to the amount of microbial cells present in a sample. For illustrative purposes, a OAB according to the present invention is added to a culture plate on which E. coli is present at a final concentration of about 5×10^3 cfu/ml. The plate is then incubated at about 37° C. for about 24 hours at which time the E. coli is resuspended by shaking, and OD is measured at about 600 nm. Thus, a reduction or absence of an increase greater than 5% in OD confirms the antimicrobial nature of the OAB with respect to E. coli. Minimum inhibitory concentration (“MIC”) is a method well-known to those of skill in the art for expressing antimicrobial activity. A compound to be tested is serially diluted into growth medium, inoculated with culture and then incubated. The MIC is the lowest dilution of compound that inhibits or prevents growth of the target microorganism.

Compound | MIC(P. cepacia)
CCCCCCCCCCCCCC(=O)N[C@@H](CCCCN)C(=O)N[C@H](C(=O)N[C@H](C(=O)N[C@@H](CCCCN)C(=O)N[C@@H](CO)C(N)=O)[C@@H](C)O)[C@@H](C)O [P190, Myr-KTTKS-amide] (Myristoyl-KTTKS-NH2) | ≤ 100 ppm
CCCCCCCCCCCCCC(=O)N[C@H](CC(C)C)C(=O)N[C@H](CCCCN)C(=O)N[C@H](CCCCN)C(=O)N[C@H](C)C(=O)N[C@H](CC(C)C)C(=O)N[C@H](CCCCN)C(=O)O [P286, Myr-d-[LKKALK]-acid] (Myristoyl-[dL][dK][dK][dA][dL][dK]-OH) | ≤ 100 ppm
CCCCCCCCCCCCCC(=O)N[C@@H](CCCCN)C(=O)N[C@@H](CCCCN)C(=O)N[C@@H](C)C(=O)N[C@@H](CC(C)C)C(N)=O [P291, Myr-KKAL-amide] (Myristoyl-KKAL-NH2) | ≤ 100 ppm
CCCCCCCCCCCCCC(=O)N[C@@H](CC(C)C)C(=O)N[C@@H](CCCCN)C(=O)N[C@@H](CCCCN)C(=O)N[C@@H](C)C(=O)N[C@@H](CC(C)C)C(=O)N[C@@H](CCCCN)C(N)=O [P296, Myr-LKKALK-amide] (Myristoyl-LKKALK-NH2) | ≤ 100 ppm
CCCCCCCCCCCCCC(=O)N1CCC[C@H]1C(=O)N[C@@H](CCCCN)C(=O)N[C@@H](CCCCN)C(=O)N[C@@H](C)C(=O)N[C@@H](CC(C)C)C(=O)N[C@@H](CCCCN)C(N)=O [P364, Myr-PKKALK-amide] (Myristoyl-PKKALK-NH2) | ≤ 100 ppm
CCCCCCCCCCCCCC(=O)N[C@@H](CCCCN)C(=O)N[C@@H](CCCCN)C(=O)N[C@@H](CC(C)C)C(=O)N[C@@H](C)C(=O)N[C@H](CCCCN)C(N)=O [P365, Myr-KKLA-[K]^D-amide] (Myristoyl-KKLA[dK]-NH2) | ≤ 100 ppm
CCCCCCCCCCCCCCCC(=O)N[C@@H](C)C(=O)N[C@@H](C)C(=O)N[C@@H](CCCCN)C(=O)N[C@@H](CCCNC(=N)N)C(N)=O [P398, Pal-AAKR-amide] (Palmitoyl-AAKR-NH2) | ≤ 100 ppm
